Experiment: Plasma levels and pharmacokinetics of intravenous ITPP

## O=P1(O)OC2C3OP(=O)(O)OP(=O)(O)OC3C3OP(=O)(O)OP(=O)(O)OC3C2OP(=O)(O)O1 (centres unmarked) [ITPP, Myo-inositol trispyrophosphate]
Cohort 1, 1866 mg/m2
  Tmax: 6.0 h
  VSS: 11.0 L
Cohort 1, patient 2, day 1, hour 0, sample 1_1_1
  ITPP plasma levels: Concentration: 0 µg/mL
Cohort 1, patient 2, day 1, hour 3, sample 1_1_2
  ITPP plasma levels: Concentration: 71.4 µg/mL
Cohort 1, patient 2, day 1, hour 6, sample 1_1_3
  ITPP plasma levels: Concentration: 64.4 µg/mL
Cohort 1, patient 2, day 1, hour 8.5, sample 1_1_4
  ITPP plasma levels: Concentration: 37.7 µg/mL
Cohort 1, patient 2, day 1, hour 9, sample 1_1_5
  ITPP plasma levels: Concentration: 27.2 µg/mL
Cohort 1, patient 2, day 2, hour 0, sample 1_2_1
  ITPP plasma levels: Concentration: 0 µg/mL
Cohort 1, patient 2, day 2, hour 9, sample 1_2_5
  ITPP plasma levels: Concentration: 31.6 µg/mL
Cohort 1, patient 2, day 3, hour 0, sample 1_3_1
  ITPP plasma levels: Concentration: 0 µg/mL
Cohort 1, patient 2, day 3, hour 9, sample 1_3_5
  ITPP plasma levels: Concentration: 28.7 µg/mL
Cohort 1, patient 4, day 2, hour 9, sample 5_2_5
  ITPP plasma levels: Concentration: 32.7 µg/mL
Cohort 1, patient 4, day 3, hour 0, sample 5_3_1
  ITPP plasma levels: Concentration: 0 µg/mL
Cohort 1, patient 4, day 3, hour 9, sample 5_3_5
  ITPP plasma levels: Concentration: 30.4 µg/mL
Cohort 1, patient 4, day 4, hour 0, sample 5_4_1
  ITPP plasma levels: Concentration: 0 µg/mL
Cohort 1, patient 4, day 4, hour 9, sample 5_4_5
  ITPP plasma levels: Concentration: 28.7 µg/mL
Cohort 1, patient 4, day 5, hour 0, sample 5_5_1
  ITPP plasma levels: Concentration: 0 µg/mL
Cohort 1, patient 4, day 5, hour 3, sample 5_5_2
  ITPP plasma levels: Concentration: 33.3 µg/mL
Cohort 1, patient 4, day 5, hour 6, sample 5_5_3
  ITPP plasma levels: Concentration: 38.4 µg/mL
Cohort 1, patient 4, day 5, hour 8.5, sample 5_5_4
  ITPP plasma levels: Concentration: 40.9 µg/mL
Cohort 1, patient 4, day 5, hour 9, sample 5_5_5
  ITPP plasma levels: Concentration: 29.6 µg/mL
Cohort 1, patient 4, day 5, hour 10, sample 5_5_6
  ITPP plasma levels: Concentration: 22 µg/mL
Cohort 1, patient 4, day 6, hour 0, sample 5_6_1
  ITPP plasma levels: Concentration: 0 µg/mL
Cohort 1, patient 4, day 6, hour 9, sample 5_6_5
  ITPP plasma levels: Concentration: 32.4 µg/mL
Cohort 1, patient 4, day 7, hour 0, sample 5_7_1
  ITPP plasma levels: Concentration: 0 µg/mL
Cohort 1, patient 4, day 7, hour 9, sample 5_7_5
  ITPP plasma levels: Concentration: 36.7 µg/mL
Cohort 1, patient 4, day 8, hour 0, sample 5_8_1
  ITPP plasma levels: Concentration: 0 µg/mL
Cohort 1, patient 4, day 8, hour 9, sample 5_8_5
  ITPP plasma levels: Concentration: 31.5 µg/mL
Cohort 1, patient 4, day 9, hour 0, sample 5_9_1
  ITPP plasma levels: Concentration: 0 µg/mL
Cohort 1, patient 4, day 9, hour 3, sample 5_9_2
  ITPP plasma levels: Concentration: 38.7 µg/mL
Cohort 1, patient 4, day 9, hour 6, sample 5_9_3
  ITPP plasma levels: Concentration: 43.5 µg/mL
Cohort 1, patient 4, day 9, hour 8.5, sample 5_9_4
  ITPP plasma levels: Concentration: 42.1 µg/mL
Cohort 1, patient 4, day 9, hour 9, sample 5_9_5
  ITPP plasma levels: Concentration: 26.1 µg/mL
Cohort 2, 3732 mg/m2
  AUC: 847.4 µg·h/mL
  AUMC: 4925.6 h2*mg/L
  CL: 3.8 L/h
  Clast: 55.8 µg/mL
  Cmax: 120.6 µg/mL
  Cmin: 0 ng/mL
  Elimination rate λz: 0.4 h⁻¹
  Half life/T0.5: 1.8 h
  MRT: 1.8 h
  Tlast: 10.0 h
  Tmax: 6.0 h
  VSS: 10.5 L
Cohort 2, patient 5, day 1, hour 0, sample 6_1_1
  ITPP plasma levels: Concentration: 0 µg/mL
Cohort 2, patient 5, day 1, hour 3, sample 6_1_2
  ITPP plasma levels: Concentration: 81 µg/mL
Cohort 2, patient 5, day 1, hour 6, sample 6_1_3
  ITPP plasma levels: Concentration: 102 µg/mL
Cohort 2, patient 5, day 1, hour 8.5, sample 6_1_4
  ITPP plasma levels: Concentration: 86.1 µg/mL
Cohort 2, patient 5, day 1, hour 9, sample 6_1_5
  ITPP plasma levels: Concentration: 66.5 µg/mL
Cohort 2, patient 5, day 1, hour 10, sample 6_1_6
  ITPP plasma levels: Concentration: 42.7 µg/mL
Cohort 2, patient 5, day 2, hour 0, sample 6_2_1
  ITPP plasma levels: Concentration: 0 µg/mL
Cohort 2, patient 5, day 2, hour 9, sample 6_2_5
  ITPP plasma levels: Concentration: 78.6 µg/mL
Cohort 2, patient 5, day 3, hour 0, sample 6_3_1
  ITPP plasma levels: Concentration: 0 µg/mL
Cohort 2, patient 5, day 3, hour 9, sample 6_3_5
  ITPP plasma levels: Concentration: 61.7 µg/mL
Cohort 2, patient 5, day 4, hour 0, sample 6_4_1
  ITPP plasma levels: Concentration: 0 µg/mL
Cohort 2, patient 5, day 4, hour 9, sample 6_4_5
  ITPP plasma levels: Concentration: 81.8 µg/mL
Cohort 2, patient 5, day 5, hour 0, sample 6_5_1
  ITPP plasma levels: Concentration: 0 µg/mL
Cohort 2, patient 5, day 5, hour 3, sample 6_5_2
  ITPP plasma levels: Concentration: 90.1 µg/mL
Cohort 2, patient 5, day 5, hour 6, sample 6_5_3
  ITPP plasma levels: Concentration: 107 µg/mL
Cohort 2, patient 5, day 5, hour 8.5, sample 6_5_4
  ITPP plasma levels: Concentration: 81.8 µg/mL
Cohort 2, patient 5, day 5, hour 9, sample 6_5_5
  ITPP plasma levels: Concentration: 62.8 µg/mL
Cohort 2, patient 5, day 5, hour 10, sample 6_5_6
  ITPP plasma levels: Concentration: 38.5 µg/mL
Cohort 2, patient 5, day 6, hour 0, sample 6_6_1
  ITPP plasma levels: Concentration: 0 µg/mL
Cohort 2, patient 5, day 6, hour 9, sample 6_6_5
  ITPP plasma levels: Concentration: 76.4 µg/mL
Cohort 2, patient 5, day 7, hour 0, sample 6_7_1
  ITPP plasma levels: Concentration: 0 µg/mL
Cohort 2, patient 5, day 7, hour 9, sample 6_7_5
  ITPP plasma levels: Concentration: 65.9 µg/mL
Cohort 2, patient 5, day 8, hour 0, sample 6_8_1
  ITPP plasma levels: Concentration: 0 µg/mL
Cohort 2, patient 5, day 8, hour 9, sample 6_8_5
  ITPP plasma levels: Concentration: 73.8 µg/mL
Cohort 2, patient 5, day 9, hour 0, sample 6_9_1
  ITPP plasma levels: Concentration: 0 µg/mL
Cohort 2, patient 5, day 9, hour 3, sample 6_9_2
  ITPP plasma levels: Concentration: 81.2 µg/mL
Cohort 2, patient 5, day 9, hour 6, sample 6_9_3
  ITPP plasma levels: Concentration: 110 µg/mL
Cohort 2, patient 5, day 9, hour 8.5, sample 6_9_4
  ITPP plasma levels: Concentration: 89.6 µg/mL
Cohort 2, patient 5, day 9, hour 9, sample 6_9_5
  ITPP plasma levels: Concentration: 58.7 µg/mL
Cohort 2, patient 6, day 1, hour 0, sample 7_1_1
  ITPP plasma levels: Concentration: 0 µg/mL
Cohort 2, patient 6, day 1, hour 3, sample 7_1_2
  ITPP plasma levels: Concentration: 84.8 µg/mL
Cohort 2, patient 6, day 1, hour 6, sample 7_1_3
  ITPP plasma levels: Concentration: 106 µg/mL
Cohort 2, patient 6, day 1, hour 8.5, sample 7_1_4
  ITPP plasma levels: Concentration: 100 µg/mL
Cohort 2, patient 6, day 1, hour 9, sample 7_1_5
  ITPP plasma levels: Concentration: 77.7 µg/mL
Cohort 2, patient 6, day 1, hour 10, sample 7_1_6
  ITPP plasma levels: Concentration: 55.2 µg/mL
Cohort 2, patient 6, day 2, hour 0, sample 7_2_1
  ITPP plasma levels: Concentration: 0 µg/mL
Cohort 2, patient 6, day 2, hour 9, sample 7_2_5
  ITPP plasma levels: Concentration: 66.6 µg/mL
Cohort 2, patient 6, day 3, hour 0, sample 7_3_1
  ITPP plasma levels: Concentration: 0 µg/mL
Cohort 2, patient 6, day 3, hour 9, sample 7_3_5
  ITPP plasma levels: Concentration: 65.2 µg/mL
Cohort 2, patient 6, day 4, hour 0, sample 7_4_1
  ITPP plasma levels: Concentration: 0 µg/mL
Cohort 2, patient 6, day 4, hour 9, sample 7_4_5
  ITPP plasma levels: Concentration: 67.1 µg/mL
Cohort 2, patient 6, day 5, hour 0, sample 7_5_1
  ITPP plasma levels: Concentration: 0 µg/mL
Cohort 2, patient 6, day 5, hour 3, sample 7_5_2
  ITPP plasma levels: Concentration: 78.6 µg/mL
Cohort 2, patient 6, day 5, hour 6, sample 7_5_3
  ITPP plasma levels: Concentration: 98 µg/mL
Cohort 2, patient 6, day 5, hour 8.5, sample 7_5_4
  ITPP plasma levels: Concentration: 82.7 µg/mL
Cohort 2, patient 6, day 5, hour 9, sample 7_5_5
  ITPP plasma levels: Concentration: 41.4 µg/mL
Cohort 2, patient 6, day 5, hour 10, sample 7_5_6
  ITPP plasma levels: Concentration: 40.6 µg/mL
Cohort 2, patient 6, day 6, hour 0, sample 7_6_1
  ITPP plasma levels: Concentration: 0 µg/mL
Cohort 2, patient 6, day 6, hour 9, sample 7_6_5
  ITPP plasma levels: Concentration: 60.1 µg/mL
Cohort 2, patient 6, day 7, hour 0, sample 7_7_1
  ITPP plasma levels: Concentration: 0 µg/mL
Cohort 2, patient 6, day 7, hour 9, sample 7_7_5
  ITPP plasma levels: Concentration: 72.5 µg/mL
Cohort 2, patient 6, day 8, hour 0, sample 7_8_1
  ITPP plasma levels: Concentration: 0 µg/mL
Cohort 2, patient 6, day 8, hour 9, sample 7_8_5
  ITPP plasma levels: Concentration: 75.7 µg/mL
Cohort 2, patient 6, day 9, hour 0, sample 7_9_1
  ITPP plasma levels: Concentration: 0 µg/mL
Cohort 2, patient 6, day 9, hour 3, sample 7_9_2
  ITPP plasma levels: Concentration: 84.2 µg/mL
Cohort 2, patient 6, day 9, hour 6, sample 7_9_3
  ITPP plasma levels: Concentration: 116 µg/mL
Cohort 2, patient 6, day 9, hour 8.5, sample 7_9_4
  ITPP plasma levels: Concentration: 105 µg/mL
Cohort 2, patient 6, day 9, hour 9, sample 7_9_5
  ITPP plasma levels: Concentration: 82 µg/mL
Cohort 2, patient 6, day 9, hour 10, sample 7_9_6
  ITPP plasma levels: Concentration: 60.5 µg/mL
Cohort 2, patient 7, day 1, hour 0, sample 8_1_1
  ITPP plasma levels: Concentration: 0 µg/mL
Cohort 2, patient 7, day 1, hour 3, sample 8_1_2
  ITPP plasma levels: Concentration: 81.8 µg/mL
Cohort 2, patient 7, day 1, hour 6, sample 8_1_3
  ITPP plasma levels: Concentration: 117 µg/mL
Cohort 2, patient 7, day 1, hour 8.5, sample 8_1_4
  ITPP plasma levels: Concentration: 100 µg/mL
Cohort 2, patient 7, day 1, hour 9, sample 8_1_5
  ITPP plasma levels: Concentration: 79.1 µg/mL
Cohort 2, patient 7, day 1, hour 10, sample 8_1_6
  ITPP plasma levels: Concentration: 67.7 µg/mL
